Data as given in US7994185B2, “Benzene sulfonamide thiazole and oxazole compounds” (Glaxo Smith Kline LLC, priority 2008, dated 2011).
pIC50: −log10 of the molar value. Where two headings read alike, the source gives them in different places.

Legend:
[1] = system: Human colon tumor cells (Colo205); experiment: Cell growth inhibition assay (CellTiter-Glo), Colo205; assay type: cell-based
In short: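 Growth is estimated from total cellular ATP measured by CellTiter-Glo luminescence after a 3-day compound exposure at 37 °C. Compounds are tested as 1:3 dilution series in 0.2% final DMSO, with inhibition expressed relative to vehicle-treated wells.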

[2] = system: Human melanoma cancer cells (SK-MEL-28); experiment: Cell growth inhibition assay (CellTiter-Glo), SK-MEL-28; assay type: cell-based
[3] = target: T1, BRAFV600E full-length (amino acids 2-766) (Homo sapiens, UniProt P15056, V600E); experiment: B-Raf Accelerated MEK ATPase assay (BRAMA); assay type: biochemical; settings: categorized; for IC50: Table 1b, read-out: B-Raf pIC50 (converted)
T1 construct: His6-tagged BRAFV600E full-length (amino acids 2-766); His6; made in house; host or cells: baculovirus expression system (insect cells)
In short: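 Coupled-enzyme readout: ADP generated by MEK-mediated ATP hydrolysis, uncoupled from ERK phosphorylation, is linked to NADH oxidation through pyruvate kinase and lactate dehydrogenase.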

[4] = COLO 205, 72 h, Table 2a, 3 days incubation, read-out: Activity in Colo205 Tumor Cells
[5] = COLO 205, Table 2b, later runs, average for the one or more runs, categorized, read-out: IC50 for Colo205
[6] = SK-MEL-28, 72 h, Table 3a, 3 days incubation, read-out: Activity in SK-MEL-28 Tumor Cells
[7] = SK-MEL-28, Table 3b, later runs, average for the one or more runs, categorized, read-out: IC50 for SK-MEL-28
[8] = B-Raf Activity, Table 1a, highest pIC50 for the one or more runs
[9] = B-Raf pIC50, Table 1b, later runs, average pIC50 for the one or more runs
[10] = later runs, average pIC50 for the one or more runs

T1 sequence (P15056 2-766 V600E): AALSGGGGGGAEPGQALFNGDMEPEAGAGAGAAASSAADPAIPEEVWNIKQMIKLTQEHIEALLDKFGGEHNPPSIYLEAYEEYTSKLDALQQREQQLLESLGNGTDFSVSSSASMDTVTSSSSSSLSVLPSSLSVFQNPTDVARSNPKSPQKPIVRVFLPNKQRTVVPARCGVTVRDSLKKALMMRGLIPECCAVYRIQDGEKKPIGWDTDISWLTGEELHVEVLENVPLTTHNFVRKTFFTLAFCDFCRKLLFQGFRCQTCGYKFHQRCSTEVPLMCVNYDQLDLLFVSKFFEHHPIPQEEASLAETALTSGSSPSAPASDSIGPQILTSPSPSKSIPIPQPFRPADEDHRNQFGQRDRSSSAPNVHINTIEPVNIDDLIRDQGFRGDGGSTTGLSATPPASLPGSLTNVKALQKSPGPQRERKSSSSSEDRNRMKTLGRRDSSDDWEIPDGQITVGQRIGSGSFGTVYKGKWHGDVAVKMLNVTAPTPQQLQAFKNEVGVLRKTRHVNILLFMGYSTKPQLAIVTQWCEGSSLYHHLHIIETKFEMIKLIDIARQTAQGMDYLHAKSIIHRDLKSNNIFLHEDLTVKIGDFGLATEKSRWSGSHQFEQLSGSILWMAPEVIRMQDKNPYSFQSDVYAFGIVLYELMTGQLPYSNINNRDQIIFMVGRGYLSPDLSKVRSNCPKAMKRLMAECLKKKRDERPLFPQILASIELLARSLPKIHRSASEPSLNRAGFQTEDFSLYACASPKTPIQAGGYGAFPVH

SMILES	pIC50 [1, 4]	pIC50 [1, 5]	pIC50 [2, 6]	pIC50 [2, 7]	pIC50 [3, 8]	pIC50 [3, 9]	IC50 [3, 10]
CC(C)c1nc(-c2cccc(NS(=O)(=O)c3cc(F)ccc3F)c2F)c(-c2ccnc(NCCN3CCCC3=O)n2)s1 [Example 190]	> 7.00	> 7.00	> 7.00	> 7.00	> 7.00	≥ 8.50	
CC(C)c1nc(-c2cccc(NS(=O)(=O)c3cc(F)ccc3F)c2F)c(-c2ccnc(NCCNS(C)(=O)=O)n2)s1 [Example 191]	> 7.00	> 7.00	> 7.00	> 7.00	> 7.00	≥ 8.50	
CC(C)c1nc(-c2cccc(NS(=O)(=O)c3cc(F)ccc3F)c2F)c(-c2ccnc(NCCNC(=O)CO)n2)s1 [Example 192]	6.00 to 7.00	6.00 to 7.00	6.00 to 7.00	> 7.00	> 7.00	≥ 8.50	
CC(C)c1nc(-c2cccc(NS(=O)(=O)c3cc(F)ccc3F)c2F)c(-c2ccnc(NCCCNC(=O)OC(C)(C)C)n2)s1 [Example 193]	6.00 to 7.00	6.00 to 7.00	6.00 to 7.00	6.00 to 7.00	> 7.00		0.00316 to 0.0316 µM
CC(=O)NCCCNc1nccc(-c2sc(C(C)C)nc2-c2cccc(NS(=O)(=O)c3cc(F)ccc3F)c2F)n1 [Example 194]	> 7.00		> 7.00	> 7.00	> 7.00	≥ 8.50	
CC(=O)NCCNc1nccc(-c2sc(C(C)(C)C)nc2-c2cccc(NS(=O)(=O)c3cc(F)ccc3F)c2F)n1 [Example 197]	> 7.00	> 7.00	> 7.00	> 7.00	> 7.00	≥ 8.50	
CC(C)(C)OC(=O)NCCNc1nccc(-c2sc(C(C)(C)C)nc2-c2cccc(NS(=O)(=O)c3cc(F)ccc3F)c2F)n1 [Example 198]	6.00 to 7.00	6.00 to 7.00	6.00 to 7.00	6.00 to 7.00	> 7.00	≥ 8.50	
CC(C)(C)c1nc(-c2cccc(NS(=O)(=O)c3cc(F)ccc3F)c2F)c(-c2ccnc(NCCNS(C)(=O)=O)n2)s1 [Example 199]	> 7.00	> 7.00	> 7.00	> 7.00	> 7.00	≥ 8.50	
Nc1nccc(-c2sc(N3CCOCC3)nc2-c2cccc(NS(=O)(=O)c3cc(F)ccc3F)c2)n1 [Example 200]	6.00 to 7.00	6.00 to 7.00	6.00 to 7.00	6.00 to 7.00	> 7.00		0.00316 to 0.0316 µM
CC(C)c1nc(-c2ccc(F)c(NS(=O)(=O)c3cc(F)ccc3F)c2)c(-c2ccnc(NCCS(C)(=O)=O)n2)s1 [Example 201]	> 7.00	> 7.00	> 7.00	> 7.00	> 7.00	≥ 8.50	
CS(=O)(=O)CCNc1nccc(-c2sc(N3CCOCC3)nc2-c2ccc(F)c(NS(=O)(=O)c3c(F)cccc3F)c2)n1 [Example 202]	< 6.00	5.00 to 6.00	6.00 to 7.00	6.00 to 7.00	> 7.00	6.00 to 7.50	
CC(C)c1nc(-c2ccc(F)c(NS(=O)(=O)c3cc(F)ccc3F)c2)c(-c2ccnc(NCCCS(C)(=O)=O)n2)s1 [Example 204]	> 7.00	> 7.00	> 7.00	> 7.00	> 7.00		0.00316 to 0.0316 µM
CC(C)c1nc(-c2ccc(F)c(NS(=O)(=O)c3cc(F)ccc3F)c2)c(-c2ccnc(NC3CCS(=O)(=O)CC3)n2)s1 [Example 205]	6.00 to 7.00	6.00 to 7.00	6.00 to 7.00	6.00 to 7.00	> 7.00		0.00316 to 0.0316 µM
CC(C)CNc1nccc(-c2sc(N3CCOCC3)nc2-c2cccc(NS(=O)(=O)c3cc(F)ccc3F)c2)n1 [Example 206]	> 7.00	> 7.00	> 7.00	> 7.00	> 7.00		0.00316 to 0.0316 µM
O=S(=O)(Nc1cccc(-c2nc(N3CCOCC3)sc2-c2ccnc(NCCO)n2)c1F)c1cc(F)ccc1F [Example 208]	> 7.00	> 7.00	> 7.00	> 7.00	> 7.00	≥ 8.50	
O=S(=O)(Nc1cccc(-c2nc(N3CCOCC3)sc2-c2ccnc(NCC3CCCO3)n2)c1F)c1cc(F)ccc1F (stereo not shown) [Example 209]	> 7.00	> 7.00	> 7.00	> 7.00	> 7.00	≥ 8.50	

SMILES	pIC50 [1, 4]	pIC50 [1, 5]	pIC50 [2, 6]	pIC50 [2, 7]	pIC50 [3, 8]	pIC50 [3, 9]	IC50 [3, 10]
CC(C)(C)c1nc(-c2cccc(NS(=O)(=O)c3cc(F)ccc3F)c2F)c(-c2ccnc(NCCO)n2)s1 [Example 210]	> 7.00	> 7.00	> 7.00	> 7.00	> 7.00	≥ 8.50	
COCCCNc1nccc(-c2sc(C(C)(C)C)nc2-c2cccc(NS(=O)(=O)c3cc(F)ccc3F)c2F)n1 [Example 211]	> 7.00	> 7.00	> 7.00	> 7.00	> 7.00	≥ 8.50	
CCOCCNc1nccc(-c2sc(C(C)(C)C)nc2-c2cccc(NS(=O)(=O)c3cc(F)ccc3F)c2F)n1 [Example 212]	> 7.00	> 7.00	> 7.00	> 7.00	> 7.00	≥ 8.50	
CC(C)(C)c1nc(-c2cccc(NS(=O)(=O)c3cc(F)ccc3F)c2F)c(-c2ccnc(NCC3CCCO3)n2)s1 (stereo not shown) [Example 213]	> 7.00	> 7.00	> 7.00	> 7.00	> 7.00	≥ 8.50	
CC(C)(C)c1nc(-c2cccc(NS(=O)(=O)c3cc(F)ccc3F)c2F)c(-c2ccnc(CCS(C)(=O)=O)n2)s1 [Example 214]	> 7.00	> 7.00	> 7.00	> 7.00	> 7.00	≥ 8.50	
CC(C)(C)c1nc(-c2cccc(NS(=O)(=O)c3cc(F)ccc3F)c2F)c(-c2ccnc(CCN3CCOCC3)n2)s1 [Example 215]	> 7.00	> 7.00	> 7.00	> 7.00	> 7.00		0.00316 to 0.0316 µM
CC(C)(C)c1nc(-c2cccc(NS(=O)(=O)c3cc(F)ccc3F)c2F)c(-c2ccnc(CCN3CCS(=O)(=O)CC3)n2)s1 [Example 216]		> 7.00		> 7.00	> 7.00		0.00316 to 0.0316 µM
CC(C)(C)c1nc(-c2cccc(NS(=O)(=O)c3cc(F)ccc3F)c2F)c(-c2ccnc(CCCl)n2)s1 [Example 217]		> 7.00		> 7.00	> 7.00	≥ 8.50	
CC(C)(C)c1nc(-c2cccc(NS(=O)(=O)c3cccc(F)c3)c2F)c(-c2ccnc(N)n2)s1 [Example 218, N-{3-[5-(2-amino-4-pyrimidinyl)-2-(1,1-dimethylethyl)-1,3-thiazol-4-yl]-2-fluorophenyl}-3-fluorobenzenesulfonamide]		> 7.00		> 7.00		≥ 8.50	
CC(C)(C)c1nc(-c2cccc(NS(=O)(=O)c3ccccc3)c2F)c(-c2ccnc(N)n2)s1 [Example 219, N-{3-[5-(2-amino-4-pyrimidinyl)-2-(1,1-dimethylethyl)-1,3-thiazol-4-yl]-2-fluorophenyl}benzenesulfonamide]		> 7.00		> 7.00			0.00316 to 0.0316 µM
Cc1nccc(-c2sc(C(C)(C)C)nc2-c2c(F)ccc(NS(=O)(=O)c3cccc(F)c3)c2F)n1 [Example 220, N-{3-[2-(1,1-dimethylethyl)-5-(2-methyl-4-pyrimidinyl)-1,3-thiazol-4-yl]-2,4-difluorophenyl}-3-fluorobenzenesulfonamide]		> 7.00		> 7.00			0.00316 to 0.0316 µM
CC(C)(C)c1nc(-c2c(F)ccc(NS(=O)(=O)c3cccc(F)c3)c2F)c(-c2ccncn2)s1 [Example 221, N-{3-[2-(1,1-dimethylethyl)-5-(4-pyrimidinyl)-1,3-thiazol-4-yl]-2,4-difluorophenyl}-3-fluorobenzenesulfonamide]		> 7.00		> 7.00		≥ 8.50	
Cc1nccc(-c2sc(C(C)(C)C)nc2-c2cccc(NS(=O)(=O)c3cccc(F)c3)c2F)n1 [Example 222, N-{3-[2-(1,1-dimethylethyl)-5-(2-methyl-4-pyrimidinyl)-1,3-thiazol-4-yl]-2-fluorophenyl}-3-fluorobenzenesulfonamide]		> 7.00		> 7.00			0.00316 to 0.0316 µM
CC(C)(C)c1nc(-c2cccc(NS(=O)(=O)c3cccc(F)c3)c2F)c(-c2ccncn2)s1 [Example 223, N-{3-[2-(1′-dimethylethyl)-5-(4-pyrimidinyl)-1,3-thiazol-4-yl]-2-fluorophenyl}-3-fluorobenzenesulfonamide]		> 7.00		> 7.00		≥ 8.50	
CC(C)(C)c1nc(-c2cccc(NS(=O)(=O)c3ccccc3F)c2F)c(-c2ccncn2)s1 [Example 224, N-{3-[2-(1,1-dimethylethyl)-5-(4-pyrimidinyl)-1,3-thiazol-4-yl]-2-fluorophenyl}-2-fluorobenzenesulfonamide]		> 7.00		> 7.00		≥ 8.50	
